Assay [1] has as its target T1, RhlR (Pseudomonas aeruginosa, UniProt P54292).
T1 construct: expressed in transfected cells; host or cells: E. coli JLD271
Put plainly: P. aeruginosa reporter assay, RhlR agonism (native ligand). The class given is cell-based. As for the experimental part:
(§1) P. aeruginosa reporter assays: Primary assays for RhlR activity in P. aeruginosa were performed as previously reported for LasR, [33] with the following modifications: OdDHL was added to the subculture to a final concentration of 100 nm immediately before it was dispensed into plates to induce expression of RhlR. For RhlR antagonism assays, synthetic ligand (100 mm) was screened against BHL at its EC50 (30 mm). For RhlR agonism assays, synthetic ligand (100 mm) was screened alongside and compared to BHL (at 900 mm) for the system. Dose-response reporter gene assays were performed according to these protocols by using various concentrations of compound.
In general terms: In a reporter assay the amount or activity of a reporter protein is the signal.

Assay [2] relates to P. aeruginosa (PAO1). Put plainly: P. aeruginosa growth curves. The class given is cell-based, Pseudomonas aeruginosa. The settings on record: complete MOPS Glutamate, 100 μM. As for the experimental part:
FIGS. 2A-2D are wild-type P. aeruginosa growth curves in the presence of test compounds in various media. Related to FIGS. 3, 6A and 6B, 7A and 7B, and 12. (FIG. 2A) Growth curves in complete MOPS/Glutamate. (FIG. 2B) Growth curves in complete MOPS/Glucose. […] (FIG. 2D) Growth curves in SCFM2. P. aeruginosa (PAO1) was grown in a manner identical to the pyocyanin assay (see Experimental Procedures). At each time point, growth was measured by either reading OD600 (for MOPS media) or by serially diluting culture aliquots, plating on LB agar, and counting CFUs after overnight incubation at 37° C. (for SCFM2). Compound concentrations are 100 microM for compounds 1, 2, and 3 and 25 microM for compound 4 in all experiments unless noted otherwise. Error bars represent the standard error of at least two biological replicates (n≥2). BHL=N-butyryl L-homoserine lactone (Cayman Chemicals).
B. Bacterial Strains and Growth Conditions. Protocols for construction of genetic knockout strains are described below in Example 2. All reagents for bacterial culture were purchased from Sigma-Aldrich unless indicated otherwise. Bacteria were routinely cultured in Luria-Bertani broth (LB) at 37° C. with shaking at 200 rpm. Freezer stocks of bacterial strains were maintained at −80° C. in 1:1 LB:glycerol. Bacterial growth was routinely assessed by measuring the culture cell density according to absorbance at 600 nm (OD600341). Cell growth in simulated cystic fibrosis sputum medium (SCFM2) was determined by serially diluting assay cultures, plating on LB agar, and counting the number of colony forming units (CFU) appearing after overnight incubation at 37° C.

For assay [3], the target named is T1, RhlR. Put plainly: E. coli reporter gene antagonism assay, RhlR. In kind it is cell-based. As for the experimental part:
Percent agonism of a given non-native inducer in a given bacterium and QS system receptor is measured with resepct to the maximum level of agonism (activation) by the native ligand of that receptor in the given bacterium. Percent antagonism is measured in competitive assays. The QS system of interest is activated to 100% with added or endogenous native ligand and the % antagonism of the non-native inducer is assessed with respect to 100% activation by the native inducer. The native ligand which induces LasR is OdDHL, which induces RhlR is BHL and which induces PqsR is PQS. As described herein and in cited references, assays for assessment of % agonism or % atangonism may be performed in E. coli systems (heterologous) or in the bacterium of interest, e.g., Pseudomonas. Dependent upon the assay system employed native ligand may be endogenously present or it may be exogenously supplied to the assay system. […] In antagonism assays using the native strains with functional QS systems, e.g., those of P. aeruginosa, endogenous native ligand is made in the system, so no native ligand is added. In native strains having one or more non-functional QS systems (mutant strains), e.g., P. aeruginosa mutants with non-functional QS systems, native ligand is added at about 10-100× the EC50 of the native ligand. In the agonism assay, native ligand is added as a control. Details of the assays are provided herein in Example 9 and in references cited in Example 9.

Assay [4] addresses T1, RhlR. Put plainly: P. aeruginosa reporter assay, RhlR antagonism. The class given is cell-based. As for the experimental part: as §1
The subject of assay [5] is P. aeruginosa (PAO1). Put plainly: Pyocyanin assay. The class given is cell-based, Pseudomonas aeruginosa. Particulars: MOPS Glutamate and Glucose media, complete or iron/phosphate depleted, 17 h, 100 μM (compounds 1, 2, 3), 25 μM (compound 4), relative to DMSO. As for the experimental part: A. Pyocyanin Assay Protocol. The amount of pyocyanin in P. aeruginosa culture supernatants was measured following a reported protocol (O'Loughlin et al., 2013) with modifications. A 10 mL overnight culture of P. aeruginosa PAO1 was grown for 16 h. DMSO stock solutions of test compounds (20 mM) were prepared, and 10 μL or 5 μL aliquots were added to sterile 15 mL borosilicate glass test tubes. An inoculating culture was prepared by diluting the overnight culture 1:100 into freshly prepared assay medium (see above), and 2 mL aliquots of this subculture were added to each test tube (0.5% DMSO, final). The cultures were grown for 17 h, and the final cell density measured by reading OD600. Relative pyocyanin levels were measured by first pelleting 1.5 mL of well-mixed culture at 4,000 g for 10 min, transferring 200 μL of the resulting supernatant to a clear, plastic 96-well microtiter plate, and reading absorbance at 695 nm. Media background absorbance (measured from a “no bacteria” control) was subtracted, the resulting values growth normalized by dividing by the final OD600378, and the data plotted relative to a DMSO-treated positive control. B. Rhamnolipid Assay Protocol. Rhamnolipid was quantified following a reported protocol (Koch et al., 1991) with modifications. Assay cultures were prepared and grown in an identical manner to the pyocyanin assay above. Aliquots of the final culture supernatant (1 mL) were transferred to 1 dram glass vials and extracted twice with 1 mL diethyl ether. The pooled organic fractions were evaporated to dryness, and the resulting residue reconstituted in 200 μL de-ionized water. In a 1.7 mL plastic centrifuge tube, 50 μL of this extract was diluted into 450 μL of a solution of 0.19% (w/v) orcinol in 50% (v/v) concentrated H2SO4 (or 20 μL extract into 480 μL orcinol solution for cultures grown in MOPS Glucose medium). The tubes were vortexed thoroughly to mix and incubated in an 80° C. heating block for 30 min. After briefly cooling to room temperature, 200 μL of the resulting yellow to yellow-orange solution was transferred to a clear 96-well microtiter plate, and the absorbance at 421 nm measured. Media background absorbance (measured from a “no bacteria” control) was subtracted, the resulting values growth normalized by dividing by the final OD600, and the data plotted relative to a DMSO-treated positive control. C. Elastase B Assay Protocol. The amount of elastase B in P. aeruginosa culture supernatants was measured following a reported protocol (Geske et al., 2007) with modifications. Assay cultures were prepared and grown in an identical manner to the pyocyanin assay above. Aliquots of the final culture supernatant (50 μL) were added to the wells of a clear, plastic 96-well plate. To each well, 150 μL of 0.5% (w/v) elastin-congo red conjugate (Elastin Products Co.) in Tris buffer (10 mM Tris-HCl, 1 mM CaCl2, pH 7.2) was added. The plate was sealed with a polypropylene storage mat (Costar 3080) and incubated in a 37° C. shaking incubator (200 rpm) attached to a Labquake rotator for 12 h (for experiments in SCFM2) or 24 h (for experiments in MOPS medium). To quantify elastase B activity, the undigested elastin was pelleted by centrifugation of the assay plate at 1,500 g for 10 min, after which 100 μL of the supernatant was transferred to a new, clear 96-well plate, and the absorbance at 490 nm measured. Media background absorbance (measured from a “no bacteria” control) was subtracted, the resulting values growth normalized by dividing by the final OD600, and the data plotted relative to a DMSO-treated positive control.

Assay [6] deals with P. aeruginosa (PAO1). Put plainly: Rhamnolipid assay. Particulars: MOPS Glutamate and Glucose media, complete or iron/phosphate depleted, 17 h, 100 μM (compounds 1, 2, 3), 25 μM (compound 4), relative to DMSO. The class given is cell-based, Pseudomonas aeruginosa. As for the experimental part:
(§2) A. Pyocyanin Assay Protocol. The amount of pyocyanin in P. aeruginosa culture supernatants was measured following a reported protocol (O'Loughlin et al., 2013) with modifications. A 10 mL overnight culture of P. aeruginosa PAO1 was grown for 16 h. DMSO stock solutions of test compounds (20 mM) were prepared, and 10 μL or 5 μL aliquots were added to sterile 15 mL borosilicate glass test tubes. An inoculating culture was prepared by diluting the overnight culture 1:100 into freshly prepared assay medium (see above), and 2 mL aliquots of this subculture were added to each test tube (0.5% DMSO, final). The cultures were grown for 17 h, and the final cell density measured by reading OD600. Relative pyocyanin levels were measured by first pelleting 1.5 mL of well-mixed culture at 4,000 g for 10 min, transferring 200 μL of the resulting supernatant to a clear, plastic 96-well microtiter plate, and reading absorbance at 695 nm. Media background absorbance (measured from a “no bacteria” control) was subtracted, the resulting values growth normalized by dividing by the final OD600378, and the data plotted relative to a DMSO-treated positive control. B. Rhamnolipid Assay Protocol. Rhamnolipid was quantified following a reported protocol (Koch et al., 1991) with modifications. Assay cultures were prepared and grown in an identical manner to the pyocyanin assay above. Aliquots of the final culture supernatant (1 mL) were transferred to 1 dram glass vials and extracted twice with 1 mL diethyl ether. The pooled organic fractions were evaporated to dryness, and the resulting residue reconstituted in 200 μL de-ionized water. […] After briefly cooling to room temperature, 200 μL of the resulting yellow to yellow-orange solution was transferred to a clear 96-well microtiter plate, and the absorbance at 421 nm measured. Media background absorbance (measured from a “no bacteria” control) was subtracted, the resulting values growth normalized by dividing by the final OD600, and the data plotted relative to a DMSO-treated positive control. […] The amount of elastase B in P. aeruginosa culture supernatants was measured following a reported protocol (Geske et al., 2007) with modifications. […] To quantify elastase B activity, the undigested elastin was pelleted by centrifugation of the assay plate at 1,500 g for 10 min, after which 100 μL of the supernatant was transferred to a new, clear 96-well plate, and the absorbance at 490 nm measured. Media background absorbance (measured from a “no bacteria” control) was subtracted, the resulting values growth normalized by dividing by the final OD600, and the data plotted relative to a DMSO-treated positive control.

In assay [7] the test system is P. aeruginosa (PAO1). Put plainly: Elastase B assay. The class given is cell-based, Pseudomonas aeruginosa. The settings on record: MOPS Glutamate, 17 h, 25 μM compound 4. As for the experimental part:
as §2

We go through three compounds from patent US10322112B2, “Compound combinations for attenuation of bacterial virulence” (priority 2016, dated 2019).

SMILES strings stand for the structures. Values joined by “and” are separate entries in the source; they are usually repeats but may differ in a detail not shown here. Identical values can stand only once. “Also recorded” adds a separate entry of the source.

T1 sequence (P54292 whole entry): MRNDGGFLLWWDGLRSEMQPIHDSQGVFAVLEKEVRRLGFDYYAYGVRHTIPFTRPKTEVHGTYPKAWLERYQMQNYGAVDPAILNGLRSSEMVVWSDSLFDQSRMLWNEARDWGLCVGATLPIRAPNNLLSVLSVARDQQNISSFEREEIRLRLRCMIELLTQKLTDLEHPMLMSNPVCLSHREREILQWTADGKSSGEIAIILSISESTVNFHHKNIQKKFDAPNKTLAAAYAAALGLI

`CCCC(=O)N[C@H]1CCOC1=O` [BHL, N-butyryl L-homoserine lactone, reference compound] returned an EC50 at RhlR [1] of around 8 µM. In the assay with P. aeruginosa (PAO1) [2], the “growth in MOPS Glutamate” value was “also produced the growth delay”.
Consider `O=C(COc1ccc(I)cc1)N[C@H]1CCSC1=O` [RN22], for which the IC50 was 19.6 µM against RhlR [3]; 31.4 µM and 31 µM on RhlR [4] (IC50, antagonism, P. aeruginosa reporter, 95% CI: 19.6 μM-50.4 μM). Moreover, on RhlR [4] (IC50 in P. aeruginosa compared with EC50 of native RhlR ligand), the “concentration blocking native ligand activity by 50%, relative to native ligand EC50” value is recorded as “less than 4 fold”.
As to `O=C(CSc1nc2cc([N+](=O)[O-])ccc2[nH]1)Nc1ccc(Oc2ccccc2)cc1` [compound 4, 2-[(6-nitro-1H-benzimidazol-2-yl)-sulfanyl]-N-(4-phenoxyphenyl)acetamide], the “pyocyanin production, single compound screens” value in the assay with P. aeruginosa (PAO1) [5] was “eliminated pyocyanin synthesis under all conditions tested, even low iron and phosphate”. Besides, in the assay with P. aeruginosa (PAO1) [6], the “rhamnolipid production, single compound screens” value is listed as “failed to inhibit rhamnolipid production; also recorded: cannot inhibit rhamnolipid”. The “elastase B production in MOPS Glutamate, single compound screen” value in the assay with P. aeruginosa (PAO1) [7] is reported as “strong attenuation of elastase B production”.

The term EC50 denotes the concentration that produces a half-maximal response. By IC50 is commonly meant the concentration needed to halve the response being measured.
